Results reported in US6737383B1, “Herbicidal oxadiazolidines” (priority 1999, dated 2004).

Key:
wild oat = assay: Test B pre/postemergence wild oat; assay type: in vivo, Avena fatua
Procedure, shortened: (§1)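 Test chemicals in a non-phytotoxic solvent mixture with surfactant were sprayed preemergence onto planted seeds and postemergence onto plants 2 to 18 cm tall (1- to 4-leaf stage). After twelve to sixteen days in a greenhouse, injury was visually rated against untreated controls from 0 (no effect) to 10 (complete control).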

smallflower flatsedge = assay: Test B flood test smallflower flatsedge; assay type: in vivo, Cyperus difformis
Procedure, shortened: (§2)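 Flood test on plants grown to the 2-leaf stage; treated plants kept in greenhouse twelve to sixteen days, then visually rated against controls on a 0 (no effect) to 10 (complete control) scale.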

surinam grass = assay: Test B pre/postemergence surinam grass; assay type: in vivo, Brachiaria decumbens
Procedure, shortened: as §1

blackgrass = assay: Test B pre/postemergence blackgrass; assay type: in vivo, Alopecurus myosuroides
Procedure, shortened: as §1

cocklebur = assay: Test B pre/postemergence cocklebur; assay type: in vivo, Xanthium strumarium
Procedure, shortened: as §1

bedstraw = assay: Test B pre/postemergence bedstraw; assay type: in vivo, Galium aparine
Procedure, shortened: as §1

pigweed = assay: Test B pre/postemergence pigweed; assay type: in vivo, Amaranthus retroflexus
Procedure, shortened: as §1

purple nutsedge = assay: Test B pre/postemergence purple nutsedge; assay type: in vivo, Cyperus rotundus
Procedure, shortened: as §1

giant foxtail = assay: Test B pre/postemergence giant foxtail; assay type: in vivo, Setaria faberii
Procedure, shortened: as §1

crabgrass = assay: Test B pre/postemergence crabgrass; assay type: in vivo, Digitaria sanguinalis
Procedure, shortened: as §1

rice = assay: Test B flood test rice; assay type: in vivo, Oryza sativa
Procedure, shortened: as §2

velvetleaf = assay: Test B pre/postemergence velvetleaf; assay type: in vivo, Abutilon theophrasti
Procedure, shortened: as §1

soybean = assay: Test B pre/postemergence soybean; assay type: in vivo, Glycine max
Procedure, shortened: as §1

morningglory = assay: Test B pre/postemergence morningglory; assay type: in vivo, Ipomoea hederacea
Procedure, shortened: as §1

wheat = assay: Test B pre/postemergence wheat; assay type: in vivo, Triticum aestivum
Procedure, shortened: as §1

bamyardgrass = assay: Test B flood test barnyardgrass; assay type: in vivo, Echinochloa crus-galli
Procedure, shortened: as §2

[1] = Postemergence, Rate 62 g/ha, scale 0 to 10, 0 is no effect, 10 is complete control
[2] = Postemergence, Rate 250 g/ha, scale 0 to 10, 0 no effect, 10 complete control
[3] = Preemergence, Rate 62 g/ha, scale 0 to 10 (0 no effect, 10 complete control)
[4] = Preemergence, Rate 125 g/ha, scale 0 to 10 (0 no effect, 10 complete control)
[5] = Preemergence, Rate 250 g/ha, scale of 0 to 10 where 0 is no effect and 10 is complete control
[6] = Preemergence, Rate 500 g/ha, scale 0 (no effect) to 10 (complete control)
[7] = Rate 125 g/ha, Postemergence, scale 0 to 10, 0 no effect, 10 complete control
[8] = Rate 500 g/ha, Postemergence, scale 0 to 10, 0 no effect, 10 complete control
[9] = Rate 62 g/ha, headed Pre-emergence (flood test species), scale 0 to 10 (0 no effect, 10 complete control)
[10] = Rate 125 g/ha, Pre-emergence, flood test species, scale 0 to 10 where 0 is no effect and 10 is complete control
[11] = Rate 250 g/ha, headed Pre-emergence (flood test species), scale 0 to 10 (0 no effect, 10 complete control)
[12] = Rate 500 g/ha, headed Pre-emergence (flood test species), scale 0 to 10 (0 no effect, 10 complete control)

Cc1cccc(C)c1-n1c(=O)on(C(=O)N(Cc2ccccc2)C(C)C)c1=O [Compound 69]
0: Wild oats plant response rating (wild oat; [1]) | Wild oats plant response rating (wild oat; [2]) | Wild oats plant response rating (wild oat; [3]) | Plant response rating, Wild oats (wild oat; [4]) | Plant response rating, Wild oats (wild oat; [5]) | Wild oats plant response rating (wild oat; [6]) | Wild oats plant response rating (wild oat; [7]) | Wild oats plant response rating (wild oat; [8]) | S. Flatsedge plant response rating (smallflower flatsedge; [9]) | S. Flatsedge plant response rating (smallflower flatsedge; [10]) | S. Flatsedge plant response rating (smallflower flatsedge; [11]) | Plant response rating, S. Flatsedge (smallflower flatsedge; [12]) | B. signalgrass plant response rating (surinam grass; [1]) | B. signalgrass plant response rating (surinam grass; [2]) | B. signalgrass plant response rating (surinam grass; [3]) | Plant response rating, B. signalgrass (surinam grass; [4]) | Plant response rating, B. signalgrass (surinam grass; [5]) | B. signalgrass plant response rating (surinam grass; [6]) | B. signalgrass plant response rating (surinam grass; [7]) | Blackgrass plant response rating (blackgrass; [1]) | Blackgrass plant response rating (blackgrass; [2]) | Blackgrass plant response rating (blackgrass; [3]) | Plant response rating, Blackgrass (blackgrass; [4]) | Plant response rating, Blackgrass (blackgrass; [5]) | Blackgrass plant response rating (blackgrass; [6]) | Blackgrass plant response rating (blackgrass; [7]) | Blackgrass plant response rating (blackgrass; [8]) | Cocklebur plant response rating (cocklebur; [1]) | Cocklebur plant response rating (cocklebur; [2]) | Cocklebur plant response rating (cocklebur; [3]) | Plant response rating, Cocklebur (cocklebur; [4]) | Plant response rating, Cocklebur (cocklebur; [5]) | Cocklebur plant response rating (cocklebur; [6]) | Cocklebur plant response rating (cocklebur; [7]) | Cocklebur plant response rating (cocklebur; [8]) | Bedstraw plant response rating (bedstraw; [1]) | Bedstraw plant response rating (bedstraw; [3]) | Plant response rating, Bedstraw (bedstraw; [4]) | Plant response rating, Bedstraw (bedstraw; [5]) | Bedstraw plant response rating (bedstraw; [6]) | Redroot pigweed plant response rating (pigweed; [1]) | Redroot pigweed plant response rating (pigweed; [2]) | Redroot pigweed plant response rating (pigweed; [3]) | Plant response rating, Redroot pigweed (pigweed; [4]) | Plant response rating, Redroot pigweed (pigweed; [5]) | Redroot pigweed plant response rating (pigweed; [6]) | Redroot pigweed plant response rating (pigweed; [7]) | Redroot pigweed plant response rating (pigweed; [8]) | Nutsedge plant response rating (purple nutsedge; [1]) | Nutsedge plant response rating (purple nutsedge; [2]) | Nutsedge plant response rating (purple nutsedge; [3]) | Plant response rating, Nutsedge (purple nutsedge; [4]) | Plant response rating, Nutsedge (purple nutsedge; [5]) | Nutsedge plant response rating (purple nutsedge; [6]) | Nutsedge plant response rating (purple nutsedge; [7]) | Nutsedge plant response rating (purple nutsedge; [8]) | Giant foxtail plant response rating (giant foxtail; [1]) | Giant foxtail plant response rating (giant foxtail; [2]) | Giant foxtail plant response rating (giant foxtail; [3]) | Plant response rating, Giant foxtail (giant foxtail; [4]) | Giant foxtail plant response rating (giant foxtail; [7]) | Crabgrass plant response rating (crabgrass; [1]) | Crabgrass plant response rating (crabgrass; [3]) | Plant response rating, Crabgrass (crabgrass; [4]) | Crabgrass plant response rating (crabgrass; [7]) | Rice plant response rating (rice; [9]) | Rice plant response rating (rice; [10]) | Rice plant response rating (rice; [11]) | Plant response rating, Rice (rice; [12]) | Velvetleaf plant response rating (velvetleaf; [1]) | Velvetleaf plant response rating (velvetleaf; [2]) | Velvetleaf plant response rating (velvetleaf; [3]) | Plant response rating, Velvetleaf (velvetleaf; [4]) | Plant response rating, Velvetleaf (velvetleaf; [5]) | Velvetleaf plant response rating (velvetleaf; [6]) | Velvetleaf plant response rating (velvetleaf; [7]) | Soybean plant response rating (soybean; [3]) | Plant response rating, Soybean (soybean; [4]) | Plant response rating, Soybean (soybean; [5]) | Soybean plant response rating (soybean; [6]) | Morningglory plant response rating (morningglory; [1]) | Morningglory plant response rating (morningglory; [2]) | Morningglory plant response rating (morningglory; [3]) | Plant response rating, Morningglory (morningglory; [4]) | Plant response rating, Morningglory (morningglory; [5]) | Morningglory plant response rating (morningglory; [6]) | Morningglory plant response rating (morningglory; [7]) | Morningglory plant response rating (morningglory; [8]) | Wheat plant response rating (wheat; [1]) | Wheat plant response rating (wheat; [2]) | Wheat plant response rating (wheat; [3]) | Plant response rating, Wheat (wheat; [4]) | Plant response rating, Wheat (wheat; [5]) | Wheat plant response rating (wheat; [6]) | Wheat plant response rating (wheat; [7]) | Wheat plant response rating (wheat; [8]) | Barnyardgrass plant response rating (bamyardgrass; [9]) | Barnyardgrass plant response rating (bamyardgrass; [10]) | Barnyardgrass plant response rating (bamyardgrass; [11]) | Plant response rating, Barnyardgrass (bamyardgrass; [12])
6: Bedstraw plant response rating (bedstraw; [8])
4: Bedstraw plant response rating (bedstraw; [7]) | Plant response rating, Giant foxtail (giant foxtail; [5]) | Giant foxtail plant response rating (giant foxtail; [6]) | Crabgrass plant response rating (crabgrass; [6])
1: Giant foxtail plant response rating (giant foxtail; [8]) | Crabgrass plant response rating (crabgrass; [2]) | Crabgrass plant response rating (crabgrass; [8])
2: Plant response rating, Crabgrass (crabgrass; [5]) | Velvetleaf plant response rating (velvetleaf; [8]) | Soybean plant response rating (soybean; [1]) | Soybean plant response rating (soybean; [2]) | Soybean plant response rating (soybean; [7])
3: Soybean plant response rating (soybean; [8])
5: Bedstraw plant response rating (bedstraw; [2])
